# Counter-ions that a name gives are not always drawn.
# Assays:
# thrombin = target: T1, thrombin (Homo sapiens, UniProt P00734); test: Thrombin inhibition constant (Ki), fluorogenic substrate assay; format: biochemical; settings: for Cycloargatroban vs. Argatroban, Ki(Thrombin): thrombin inhibition activity relative to argatroban
# T1 construct: purchased Sigma
# [1] = target: T2, tissue plasminogen activator (tPA) (Homo sapiens, UniProt P00750); test: tPA inhibition constant (Ki), fluorogenic substrate assay; format: biochemical
# T2 construct: purchased Sigma
# T2 sequence (P00750 36-562, species assumed): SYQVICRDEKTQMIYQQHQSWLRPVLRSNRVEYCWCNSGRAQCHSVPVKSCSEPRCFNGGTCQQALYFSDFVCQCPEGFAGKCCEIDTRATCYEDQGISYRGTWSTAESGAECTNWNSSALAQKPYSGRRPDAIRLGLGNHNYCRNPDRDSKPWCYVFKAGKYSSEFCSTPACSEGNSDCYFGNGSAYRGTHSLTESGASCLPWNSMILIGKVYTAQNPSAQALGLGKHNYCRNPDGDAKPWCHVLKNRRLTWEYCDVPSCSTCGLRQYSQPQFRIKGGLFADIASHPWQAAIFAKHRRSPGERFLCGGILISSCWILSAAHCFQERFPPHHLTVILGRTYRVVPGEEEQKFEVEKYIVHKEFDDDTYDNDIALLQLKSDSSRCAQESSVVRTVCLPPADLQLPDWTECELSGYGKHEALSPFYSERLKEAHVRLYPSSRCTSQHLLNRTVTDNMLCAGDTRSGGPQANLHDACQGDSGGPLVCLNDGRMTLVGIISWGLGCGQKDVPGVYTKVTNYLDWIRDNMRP
# Description: The activity and selectivity of the present invention can be identified by determination of the inhibition constant (Ki) for serine proteases such thrombin and trypsin and fibrinolytic enzymes such as urokinase, plasmin and tissue plasminogen activator (tPA). All of enzymes are purchased from Sigma. The general assay conditions are as follows. The fluorogenic substrates are dissolved in DMSO and diluted using assay buffer containing 50 mM Tris.HCl (pH 7.8 at 25° C.), 0.1 M NaCl and 0.1% polyethylene glycol 8000 (PEG 8000). […] The assays were conducted using Hitachi F2500 spectrophotometer under ambient temperature and at the excitation and emission wavelengths of 383 nm and 455 nm, respectively. The typical progressive data of the enzymatic assays are shown in FIGS. 1-3, and the determination of inhibition constant (Ki) is shown in FIG. 4.
# [2] = tested on: pooled normal human plasma; test: Ex vivo coagulation assay (APTT prolongation); format: biochemical; settings: normal citrated human plasma
# Description: Frozen-pooled human plasma was obtained from Sigma. Measurement of APTT was made using the ELECTRA™ 800 automated coagulometer (Medical Laboratory Automation Inc.) using the automated APTT reagent (SIGMA) as the initiator of clotting according to the manufacture's instructions. The assay was conducted by making a series of dilution of the reference and test compounds in rapidly thawed plasma (compound: plasma=0.1 ml:0.9 ml) followed by adding the mixed solution to the wells of the assay carousel. Tris buffers (pH 7.8 at 25° C.) were used through the entire assay.
# [3] = Acute toxicity, intravenous injection, determination of LD50; format: in vivo, mice; settings: both sexes, ICR, mouse, in vivo, iv, ICR mice, single i.v., Bliss method
# Source text: (§1) 1) Determination of LD50 (Tables III and IV): ICR mice, 18 ˜20 g, were divided into five groups, with 10 animals in each group (half male and half female). The ratio of doses between groups was 1:0.85.
# ICR mice = test: as above; format: in vivo; settings: for Number of deaths: 10 mice
# Source text: as §1
# SD rats = test: Acute myocardial infarction by coronary artery ligation in rats; format: in vivo, rat; settings: for CK (u/ml) / LDH (u/ml): serum;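 on CK (u/ml): blood collected at end of 6 h (i.v.) or 8 h (intraduodenal) ECG observation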;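 on LDH (u/ml): blood collected at end of 6 h (i.v.) or 8 h (intraduodenal) ECG observation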
# Description: The drugs were administered 8 to 10 min after the coronary artery was ligated.
# [4] = 0.125 mg/kg i.v., 0 min after ligation (before drug)
# [5] = 0.125 mg/kg i.v., 10 min after ligation
# [6] = 0.125 mg/kg i.v., 30 min after ligation
# [7] = 0.125 mg/kg i.v., 6 h after ligation
# [8] = 0.25 mg/kg i.v., 0 min after ligation (before drug)
# [9] = 0.25 mg/kg i.v., 10 min after ligation
# [10] = 0.25 mg/kg i.v., 30 min after ligation
# [11] = 0.25 mg/kg i.v., 6 h after ligation
# [12] = 75 mg/kg intraduodenum, 0 min after ligation (before drug)
# [13] = 75 mg/kg intraduodenum, 10 min after ligation
# [14] = 75 mg/kg intraduodenum, 30 min after ligation
# [15] = 75 mg/kg intraduodenum, 6 h after ligation
smiles,measurement,setting,value
"CC1CNc2c(cccc2S(=O)(=O)N2C(=O)C3CC(C)CCN3C(=O)C2CCCNC(=N)N)C1 [NPI1999, (3S,6R,8R)-Bicyclo[4.4.0]-1,4-diaza-3-(3-guanidinopropyl)-4-N-(1,2,3,4-tetrahydro-3-methyl-8-quinolinesulfonyl)-8-methyl-2,5-decanedione, hydrochoride salt]",Ki,"thrombin; Table II, method of example 9",0.02 to 0.04 µM
same,Ki,"thrombin; substrate Tos-Gly-Pro-Arg-AMC, pH 7.8",0.04 µM
same,"Cycloargatroban vs. Argatroban, Ki(Thrombin)",thrombin; listed as Cycloargatroban,−2.1 fold
same,"Cycloargatroban vs. Argatroban, Ki(Thrombin)",thrombin; listed as cycloargatroban,2.1 fold
same,Cycloargatroban [Ki (Enzyme)/Ki (Thrombin)] vs. Argatroban [Ki (Enzyme)/Ki (Thrombin)],[1]; enzyme = tPA,+1.2 fold
same,Ki,[1]; substrate Boc-L-(p-F) FPR-ANSNH-C2H5,2020 µM
same,effect on APTT compared with argatroban,[2],less strong effect
same,effect on activated partial thromboplastin time (APTT),[2]; FIG. 5,prolonged the APTT in a dose dependent manner
same,95% confidence interval of LD50 at 2 weeks,[3],10 to 11.9 mg/kg
same,LD50 at 2 weeks,[3]; observed 2 weeks,10.9 mg/kg
same,Death rate (%),ICR mice; i.v. 7.83 mg/kg,0%
same,Number of deaths,ICR mice; i.v. 7.83 mg/kg,0
same,Number of death,"ICR mice; i.v. 7.83 mg/kg, ♀, 4-13 days after administration",0
same,Number of death,"ICR mice; i.v. 7.83 mg/kg, ♀, 1 day after administration",0
same,Number of death,"ICR mice; i.v. 7.83 mg/kg, ♀, 2 days after administration",0
same,Number of death,"ICR mice; i.v. 7.83 mg/kg, ♀, 3 days after administration",0
same,Number of death,"ICR mice; i.v. 7.83 mg/kg, ♀, day of administration",0
same,Number of death,"ICR mice; i.v. 7.83 mg/kg, ♂, 4-13 days after administration",0
same,Number of death,"ICR mice; i.v. 7.83 mg/kg, ♂, 1 day after administration",0
same,Number of death,"ICR mice; i.v. 7.83 mg/kg, ♂, 2 days after administration",0
same,Number of death,"ICR mice; i.v. 7.83 mg/kg, ♂, 3 days after administration",0
same,Number of death,"ICR mice; i.v. 7.83 mg/kg, ♂, day of administration",0
same,Death rate (%),ICR mice; i.v. 9.21 mg/kg,30%
same,Number of deaths,ICR mice; i.v. 9.21 mg/kg,3
same,Number of death,"ICR mice; i.v. 9.21 mg/kg, ♀, 4-13 days after administration",0
same,Number of death,"ICR mice; i.v. 9.21 mg/kg, ♀, 1 day after administration",0
same,Number of death,"ICR mice; i.v. 9.21 mg/kg, ♀, 2 days after administration",0
same,Number of death,"ICR mice; i.v. 9.21 mg/kg, ♀, 3 days after administration",0
same,Number of death,"ICR mice; i.v. 9.21 mg/kg, ♀, day of administration",2
same,Number of death,"ICR mice; i.v. 9.21 mg/kg, ♂, 4-13 days after administration",0
same,Number of death,"ICR mice; i.v. 9.21 mg/kg, ♂, 1 day after administration",0
same,Number of death,"ICR mice; i.v. 9.21 mg/kg, ♂, 2 days after administration",0
same,Number of death,"ICR mice; i.v. 9.21 mg/kg, ♂, 3 days after administration",0
same,Number of death,"ICR mice; i.v. 9.21 mg/kg, ♂, day of administration",1
same,Death rate (%),ICR mice; i.v. 10.84 mg/kg,50%
same,Number of deaths,ICR mice; i.v. 10.84 mg/kg,5
same,Number of death,"ICR mice; i.v. 10.84 mg/kg, ♀, 4-13 days after administration",0
same,Number of death,"ICR mice; i.v. 10.84 mg/kg, ♀, 1 day after administration",0
same,Number of death,"ICR mice; i.v. 10.84 mg/kg, ♀, 2 days after administration",0
same,Number of death,"ICR mice; i.v. 10.84 mg/kg, ♀, 3 days after administration",0
same,Number of death,"ICR mice; i.v. 10.84 mg/kg, ♀, day of administration",3
same,Number of death,"ICR mice; i.v. 10.84 mg/kg, ♂, 4-13 days after administration",0
same,Number of death,"ICR mice; i.v. 10.84 mg/kg, ♂, 1 day after administration",0
same,Number of death,"ICR mice; i.v. 10.84 mg/kg, ♂, 2 days after administration",0
same,Number of death,"ICR mice; i.v. 10.84 mg/kg, ♂, 3 days after administration",0
same,Number of death,"ICR mice; i.v. 10.84 mg/kg, ♂, day of administration",2
same,Death rate (%),ICR mice; i.v. 12.75 mg/kg,80%
same,Number of deaths,ICR mice; i.v. 12.75 mg/kg,8
same,Number of death,"ICR mice; i.v. 12.75 mg/kg, ♀, 4-13 days after administration",0
same,Number of death,"ICR mice; i.v. 12.75 mg/kg, ♀, 1 day after administration",0
same,Number of death,"ICR mice; i.v. 12.75 mg/kg, ♀, 2 days after administration",0
same,Number of death,"ICR mice; i.v. 12.75 mg/kg, ♀, 3 days after administration",0
same,Number of death,"ICR mice; i.v. 12.75 mg/kg, ♀, day of administration",4
same,Number of death,"ICR mice; i.v. 12.75 mg/kg, ♂, 4-13 days after administration",0
same,Number of death,"ICR mice; i.v. 12.75 mg/kg, ♂, 1 day after administration",0
same,Number of death,"ICR mice; i.v. 12.75 mg/kg, ♂, 2 days after administration",0
same,Number of death,"ICR mice; i.v. 12.75 mg/kg, ♂, 3 days after administration",0
same,Number of death,"ICR mice; i.v. 12.75 mg/kg, ♂, day of administration",4
same,Death rate (%),ICR mice; i.v. 15.00 mg/kg,90%
same,Number of deaths,ICR mice; i.v. 15.00 mg/kg,9
same,Number of death,"ICR mice; i.v. 15.00 mg/kg, ♀, 4-13 days after administration",0
same,Number of death,"ICR mice; i.v. 15.00 mg/kg, ♀, 1 day after administration",0
same,Number of death,"ICR mice; i.v. 15.00 mg/kg, ♀, 2 days after administration",0
same,Number of death,"ICR mice; i.v. 15.00 mg/kg, ♀, 3 days after administration",0
same,Number of death,"ICR mice; i.v. 15.00 mg/kg, ♀, day of administration",4
same,Number of death,"ICR mice; i.v. 15.00 mg/kg, ♂, 4-13 days after administration",0
same,Number of death,"ICR mice; i.v. 15.00 mg/kg, ♂, 1 day after administration",0
same,Number of death,"ICR mice; i.v. 15.00 mg/kg, ♂, 2 days after administration",0
same,Number of death,"ICR mice; i.v. 15.00 mg/kg, ♂, 3 days after administration",0
same,Number of death,"ICR mice; i.v. 15.00 mg/kg, ♂, day of administration",5
same,Infarction Area (%),SD rats; 0.125 mg/kg i.v.,26.40 ± 7.42 %
same,S point in electrocardiogram,SD rats; [4],0.33 ± 0.12
same,T wave in electrocardiogram,SD rats; [4],0.19 ± 0.15
same,S point in electrocardiogram,SD rats; [5],0.34 ± 0.19
same,T wave in electrocardiogram,SD rats; [5],0.17 ± 0.18
same,S point in electrocardiogram,SD rats; [6],0.27 ± 0.21
same,T wave in electrocardiogram,SD rats; [6],0.18 ± 0.23
same,S point in electrocardiogram,SD rats; [7],0.08 ± 0.14
same,T wave in electrocardiogram,SD rats; [7],0.02 ± 0.16
same,Infarction Area (%),SD rats; 0.25 mg/kg i.v.,25.66 ± 7.32 %
same,S point in electrocardiogram,SD rats; [8],0.33 ± 0.17
same,T wave in electrocardiogram,SD rats; [8],0.19 ± 0.11
same,S point in electrocardiogram,SD rats; [9],0.42 ± 0.20
same,T wave in electrocardiogram,SD rats; [9],0.27 ± 0.13
same,S point in electrocardiogram,SD rats; [10],0.34 ± 0.22
same,T wave in electrocardiogram,SD rats; [10],0.26 ± 0.17
same,S point in electrocardiogram,SD rats; [11],0.24 ± 0.18
same,T wave in electrocardiogram,SD rats; [11],0.15 ± 0.11
same,Infarction Area (%),SD rats; 75 mg/kg intraduodenum,30.98 ± 7.41%
same,S point in electrocardiogram,SD rats; [12],0.26 ± 0.13
same,T wave in electrocardiogram,SD rats; [12],0.12 ± 0.11
same,S point in electrocardiogram,SD rats; [13],0.28 ± 0.07
same,T wave in electrocardiogram,SD rats; [13],0.15 ± 0.09
same,S point in electrocardiogram,SD rats; [14],0.28 ± 0.10
same,T wave in electrocardiogram,SD rats; [14],0.18 ± 0.11
same,S point in electrocardiogram,SD rats; [15],0.18 ± 0.22
same,T wave in electrocardiogram,SD rats; [15],0.13 ± 0.11
same,infarction area and serum LDH and CK,SD rats; i.v. 0.25 mg/kg and 0.125 mg/kg,significantly reduced
same,infarction area and serum LDH and CK,SD rats; intra-duodenum 75 mg/kg,no significant effects
same,CK (u/ml),SD rats; 0.125 mg/kg i.v.,52.75 ± 16.25 u/ml
same,LDH (u/ml),SD rats; 0.125 mg/kg i.v.,6254.1 ± 220.1 u/ml
same,CK (u/ml),SD rats; 0.25 mg/kg i.v.,56.52 ± 14.48 u/ml
same,LDH (u/ml),SD rats; 0.25 mg/kg i.v.,6125.7 ± 385.5 u/ml
same,CK (u/ml),SD rats; 75 mg/kg intraduodenum,53.90 ± 20.60 u/ml
same,LDH (u/ml),SD rats; 75 mg/kg intraduodenum,6393.3 ± 308.7 u/ml

# From US20050096323A1, “Diketopiperazine derivatives to inhibit thrombin” (NovoScience Pharma Inc., priority 1999, published 2005)
